PubChem BioAssay (NCI)
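These data come from cells grown in 96-well plates and exposed to compound for 48 hours at five concentrations. GI50 marks 50% less growth. TGI: total growth inhibition.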

What was measured:
Assay in all cases: growth of human tumour cells (NCI), 48 h
HCT-116 colon = tested on: HCT-116 colon
SN12C renal = tested on: SN12C renal
NCI-H23 lung = tested on: NCI-H23 lung
786-0 renal = tested on: 786-0 renal
OVCAR-4 ovarian = tested on: OVCAR-4 ovarian
COLO 205 colon = tested on: COLO 205 colon
CAKI-1 renal = tested on: CAKI-1 renal
EKVX NSCLC = tested on: EKVX NSCLC
NCI/ADR-RES ovarian = tested on: NCI/ADR-RES ovarian
DU-145 prostate = tested on: DU-145 prostate

| Structure (SMILES) | TGI (HCT-116 colon) | TGI (SN12C renal) | TGI (NCI-H23 lung) | TGI (786-0 renal) | TGI (OVCAR-4 ovarian) | TGI (COLO 205 colon) | TGI (CAKI-1 renal) | TGI (EKVX NSCLC) | TGI (NCI/ADR-RES ovarian) | TGI (DU-145 prostate) | GI50 (HCT-116 colon) | GI50 (SN12C renal) | GI50 (NCI-H23 lung) | GI50 (786-0 renal) | GI50 (OVCAR-4 ovarian) | GI50 (COLO 205 colon) | GI50 (DU-145 prostate) | GI50 (CAKI-1 renal) | GI50 (EKVX NSCLC) | GI50 (NCI/ADR-RES ovarian) |
| --- | --- | --- | --- | --- | --- | --- | --- | --- | --- | --- | --- | --- | --- | --- | --- | --- | --- | --- | --- | --- |
| CSc1snc2sc3c(Cl)nnnc3c12 | 30.9 µM | 28.7 µM | 36 µM | 29.7 µM | 29.5 µM | 24 µM | 15.9 µM | 38.6 µM | – | – | – | – | – | – | – | – | – | – | – | – |
| O=C(O/N=C1/CCC/C1=C\c1ccccc1)c1ccc(Cl)c(Cl)c1 | > 100 µM | > 100 µM | > 100 µM | > 100 µM | > 100 µM | > 100 µM | > 100 µM | > 100 µM | – | – | – | – | – | – | – | – | – | – | – | – |
| CC(C(N)C(=O)NC(C(=O)O)C1OC(n2ccc(=O)[nH]c2=O)C(O)C1O)C(O)c1ccc(O)cn1 (configuration not stated) | > 100 µM | > 100 µM | > 100 µM | > 100 µM | – | > 100 µM | > 100 µM | > 100 µM | > 100 µM | > 100 µM | – | – | – | – | – | – | – | – | – | – |
| C=C1CC2CC(O)CC(C1)C2 (configuration not stated) | > 100 µM | > 100 µM | > 100 µM | > 100 µM | > 100 µM | > 100 µM | > 100 µM | > 100 µM | – | – | – | – | – | – | – | – | – | – | – | – |
| O=C1C2C(C(=O)N1c1ccccc1)C1([N+](=O)[O-])C=C3c4ccccc4N(C(=O)c4ccccc4)C32C2C(=O)N(c3ccccc3)C(=O)C21 (configuration not stated) | > 100 µM | > 100 µM | > 100 µM | > 100 µM | – | > 100 µM | > 100 µM | – | – | – | – | – | – | – | – | – | – | – | – | – |
| Nc1n[n+](-c2ccccc2)no1 | > 100 µM | > 100 µM | > 100 µM | > 100 µM | > 100 µM | > 100 µM | > 100 µM | > 100 µM | – | – | – | – | – | – | – | – | – | – | – | – |
| CCc1ccc(C(=Nc2ccc(N(C)C(=O)CN3CCN(C)CC3)cc2)c2c(O)[nH]c3ccc(C(=O)OC)cc23)cc1 | 1.12 µM | 1.61 µM | 2.03 µM | 1.86 µM | 1.95 µM | 1.7 µM | 1.48 µM | 2.36 µM | – | 1.84 µM | 0.0995 µM | 0.223 µM | 0.417 µM | 0.404 µM | 0.582 µM | 0.319 µM | 0.528 µM | 0.135 µM | 0.788 µM | – |
| Cc1cccc2c1CCC21OC(=O)c2c1ccc1ccccc21 (configuration not stated) | > 100 µM | > 100 µM | 98.7 µM | > 100 µM | > 100 µM | > 100 µM | > 100 µM | > 100 µM | – | – | – | – | – | – | – | – | – | – | – | – |
| CCn1c(-c2nonc2N)nc2c(C#CC(C)(C)O)ncc(OC[C@H]3CCCNC3)c21 | > 95.9 µM | 51.1 µM | > 96 µM | 16 µM | 92.2 µM | 26.3 µM | > 100 µM | – | > 100 µM | 73.8 µM | 12.9 µM | 12.7 µM | 23.5 µM | 0.46 µM | 31.4 µM | 9.75 µM | 12.9 µM | 32.7 µM | – | > 100 µM |
| CCOC(=O)c1cnc2c(ccc3ncccc32)c1NCCCN(CC)CC | – | – | > 100 µM | > 100 µM | > 100 µM | > 100 µM | > 100 µM | > 100 µM | – | – | – | – | – | – | – | – | – | – | – | – |
